Data on five compounds can be found in ChEMBL document CHEMBL4385620, “Inhibition of polypeptide N-acetyl-α-galactosaminyltransferases is an underlying mechanism of dietary polyphenols preventing colorectal tumorigenesis” (Bioorg Med Chem, 2019).

Each structure is given as a SMILES string. The source made the active and inactive calls. The calls are words filed in the database; no cut-off is given here.

For experiment [1], the target named is T1, Polypeptide N-acetylgalactosaminyltransferase 2 (Homo sapiens, UniProt Q10471). The experiment can be described thus: Binding affinity of human recombinant FLAG-tagged ppGalNAcT2 expressed in HEK293 cells assessed as association rate by SPR analysis.
For experiment [2], the target named is T1, Polypeptide N-acetylgalactosaminyltransferase 2. The experiment can be described thus: Binding affinity of human recombinant FLAG-tagged ppGalNAcT2 expressed in HEK293 cells assessed as dissociation rate by SPR analysis.
Experiment [3] shares this target. The experiment can be described thus: Inhibition of catalytic activity of human recombinant FLAG-tagged ppGalNAcT2 expressed in HEK293T cells and using 5-FAM labelled-EA2 peptide as substrate incubated for 30 mins by HPLC-based enzyme assay.
The target is the same in experiment [4]. The experiment can be described thus: Binding affinity of human recombinant FLAG-tagged ppGalNAcT2 expressed in HEK293 cells assessed as dissociation constant by SPR analysis.
Experiment [5] shares this target. The experiment can be described thus: Inhibition of ppGalNAcT2 in human HT-29 cells assessed as reduction in O-GalNAc glycans by measuring PNA lectin signal on cell surface at 40 uM incubated for 48 hrs by DAPI staining based immunofluorescence method.
The target in experiment [6] is Polypeptide N-acetylgalactosaminyltransferase 2 (Homo sapiens, UniProt Q10471, W282A). Briefly: Inhibition of catalytic activity of human recombinant FLAG-tagged ppGalNAcT2 W282A mutant expressed in HEK293 cells using EA2 peptide as substrate by HPLC-based enzyme assay.
The next experiment is filed under the species Homo sapiens. Briefly: Ratio of IC50 for IC50 for human recombinant FLAG-tagged ppGalNAcT2 W282A mutant to IC50 for human recombinant FLAG-tagged ppGalNAcT2.

T1 sequence (Q10471 whole entry): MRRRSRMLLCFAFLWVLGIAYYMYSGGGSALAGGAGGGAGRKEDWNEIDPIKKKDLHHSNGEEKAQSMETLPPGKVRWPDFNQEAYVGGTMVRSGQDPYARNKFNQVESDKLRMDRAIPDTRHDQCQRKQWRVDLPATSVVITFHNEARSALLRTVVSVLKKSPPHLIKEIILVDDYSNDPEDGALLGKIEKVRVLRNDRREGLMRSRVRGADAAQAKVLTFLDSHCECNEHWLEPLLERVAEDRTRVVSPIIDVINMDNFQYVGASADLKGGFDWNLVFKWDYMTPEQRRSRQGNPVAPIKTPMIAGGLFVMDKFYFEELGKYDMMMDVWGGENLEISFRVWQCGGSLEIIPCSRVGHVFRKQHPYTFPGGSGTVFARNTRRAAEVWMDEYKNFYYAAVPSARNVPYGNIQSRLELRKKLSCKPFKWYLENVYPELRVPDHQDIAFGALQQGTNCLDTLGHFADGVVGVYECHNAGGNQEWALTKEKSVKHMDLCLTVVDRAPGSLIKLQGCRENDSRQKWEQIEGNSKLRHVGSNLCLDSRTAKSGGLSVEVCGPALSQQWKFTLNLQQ
Polypeptide N-acetylgalactosaminyltransferase 2 (Homo sapiens, UniProt Q10471, W282A), sequence (Q10471 whole entry W282A): as the sequence (Q10471 whole entry) above, with W282A counted along it

In the case of `O=C(O)c1cc(O)c(O)c(O)c1` [GALLIC ACID], the association rate constant (kon) in experiment [1] stood at 1454 M⁻¹ s⁻¹. Moreover, in experiment [2], the koff is on record as 1.34 ×10⁻³ /s. Besides, the concentration for half-maximal inhibition (IC50) in experiment [3] was found to be 1370 nM. Moreover, in experiment [4], the Kd stood at 924 nM.

As to `O=c1oc2cc(O)ccc2c2ccccc12`, in experiment [3], the half-inhibitory concentration (IC50) was > 100000 nM.

With `COc1c(O)cc2c(=O)oc3c(OC)c(O)cc4c(=O)oc1c2c34`, in experiment [3], the IC50 is > 100000 nM.

As for `O=c1oc2c(O)c(O)cc3c(=O)oc4c(O)c(O)cc1c4c23` [ELLAGIC ACID], in experiment [1], the kon stood at 2367 M⁻¹ s⁻¹. For the same compound, in experiment [5], the inhibition entry was “Active”. The koff in experiment [2] is on record as 8.79 ×10⁻⁴ /s. Also, the concentration for half-maximal inhibition (IC50) was determined as 510 nM in experiment [3] and 2930 nM in experiment [6]. For the same compound, in experiment [4], the Kd is 371 nM. The Ratio IC50 in the experiment filed under Homo sapiens came out at 6.

Take `c1cc2ccc3cccc4ccc(c1)c2c34` [PYRENE]: the inhibition result in experiment [5] is “inactive”. Also, in experiment [3], the IC50 is > 100000 nM.
